Earlier results in patent US5977116A, “Piperazine, piperidine and tetrahydropyridine derivatives” (Merck Sharp & Dohme Ltd., priority 1995, dated 1999).

Tested on: human 5-HT1Dα and 5-HT1Dβ receptor subtypes
Details: cf. WO-A-91/17174, Table 1

CNS(=O)(=O)Cc1ccc2[nH]cc(CCN(C)C)c2c1 [sumatriptan]
discrimination between human 5-HT1Dα and 5-HT1Dβ receptor subtypes: barely discriminates
